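Here, GI50 denotes the concentration required for 50% inhibition of growth. TGI: total growth inhibition.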
Assays:
Experiment in all cases: NCI-60 cell line screen, 384-well format
HCC-2998 colon = tested on: HCC-2998 colon
BT-549 breast = tested on: BT-549 breast
SK-OV-3 ovarian = tested on: SK-OV-3 ovarian
SF-295 CNS = tested on: SF-295 CNS
OVCAR-4 ovarian = tested on: OVCAR-4 ovarian
K-562 leukemia = tested on: K-562 leukemia
NCI/ADR-RES ovarian = tested on: NCI/ADR-RES ovarian
MDA-MB-468 breast = tested on: MDA-MB-468 breast
A498 renal = tested on: A498 renal
LOX IMVI melanoma = tested on: LOX IMVI melanoma
CAKI-1 renal = tested on: CAKI-1 renal
UACC-62 melanoma = tested on: UACC-62 melanoma
DU-145 prostate = tested on: DU-145 prostate
MDA-MB-231 breast = tested on: MDA-MB-231 breast
HT29 colon = tested on: HT29 colon
HOP-62 NSCLC = tested on: HOP-62 NSCLC
SF-539 CNS = tested on: SF-539 CNS
MOLT-4 leukemia = tested on: MOLT-4 leukemia
ACHN renal = tested on: ACHN renal
NCI-H460 NSCLC = tested on: NCI-H460 NSCLC
SNB-75 CNS = tested on: SNB-75 CNS
MCF7 breast = tested on: MCF7 breast
CCRF-CEM leukemia = tested on: CCRF-CEM leukemia
T-47D breast = tested on: T-47D breast
NCI-H522 lung = tested on: NCI-H522 lung
HOP-92 NSCLC = tested on: HOP-92 NSCLC
HCT-15 colon = tested on: HCT-15 colon
SN12C renal = tested on: SN12C renal
NCI-H226 lung = tested on: NCI-H226 lung

Compound: O=C(NOCCO)c1ccc2cncn2c1Nc1ccc(I)cc1F
- GI50 (HCC-2998 colon): < 0.01 µM
- TGI (HCC-2998 colon): 0.0101 µM
- GI50 (BT-549 breast): 10 µM
- TGI (BT-549 breast): 25.4 µM
- GI50 (SK-OV-3 ovarian): 2.76 µM
- TGI (SK-OV-3 ovarian): 18.7 µM
- GI50 (SF-295 CNS): 11.1 µM
- TGI (SF-295 CNS): 26.2 µM
- GI50 (OVCAR-4 ovarian): 4.22 µM
- TGI (OVCAR-4 ovarian): 38.3 µM
- GI50 (K-562 leukemia): 0.0267 µM
- TGI (K-562 leukemia): 14.7 µM
- GI50 (NCI/ADR-RES ovarian): 23.1 µM
- TGI (NCI/ADR-RES ovarian): > 100 µM
- GI50 (MDA-MB-468 breast): 6.92 µM
- TGI (MDA-MB-468 breast): 21.5 µM
- GI50 (A498 renal): 11.9 µM
- TGI (A498 renal): 32.4 µM
- GI50 (LOX IMVI melanoma): < 0.01 µM
- TGI (LOX IMVI melanoma): 0.259 µM
- GI50 (CAKI-1 renal): 0.0109 µM
- TGI (CAKI-1 renal): 13.3 µM
- GI50 (UACC-62 melanoma): < 0.01 µM
- TGI (UACC-62 melanoma): 0.0159 µM
- GI50 (DU-145 prostate): 2.14 µM
- TGI (DU-145 prostate): 22.4 µM
- GI50 (MDA-MB-231 breast): < 0.01 µM
- TGI (MDA-MB-231 breast): 1.02 µM
- GI50 (HT29 colon): < 0.01 µM
- TGI (HT29 colon): 14.3 µM
- GI50 (HOP-62 NSCLC): 0.0128 µM
- TGI (HOP-62 NSCLC): 15.3 µM
- GI50 (SF-539 CNS): 0.288 µM
- TGI (SF-539 CNS): 11.7 µM
- GI50 (MOLT-4 leukemia): 14.8 µM
- TGI (MOLT-4 leukemia): 31.7 µM
- GI50 (ACHN renal): 7.88 µM
- TGI (ACHN renal): > 100 µM
- GI50 (NCI-H460 NSCLC): < 0.01 µM
- TGI (NCI-H460 NSCLC): 22.1 µM
- GI50 (SNB-75 CNS): 0.34 µM
- TGI (SNB-75 CNS): 15.7 µM
- GI50 (MCF7 breast): 11.5 µM
- TGI (MCF7 breast): 47.2 µM
- GI50 (CCRF-CEM leukemia): 13.3 µM
- TGI (CCRF-CEM leukemia): 27 µM
- GI50 (T-47D breast): 15.2 µM
- TGI (T-47D breast): 43.1 µM
- GI50 (NCI-H522 lung): 11.8 µM
- TGI (NCI-H522 lung): 26.4 µM
- GI50 (HOP-92 NSCLC): 0.012 µM
- TGI (HOP-92 NSCLC): 0.198 µM
- GI50 (HCT-15 colon): 0.301 µM
- TGI (HCT-15 colon): > 100 µM
- GI50 (SN12C renal): < 0.01 µM
- TGI (SN12C renal): 17.9 µM
- GI50 (NCI-H226 lung): 1.01 µM
- TGI (NCI-H226 lung): 18.3 µM

From PubChem BioAssay (NCI)
